Results on 30 molecules are retold here after ChEMBL document CHEMBL5291721, “A preclinical secondary pharmacology resource illuminates target-adverse drug reaction associations of marketed drugs” (Nat Commun, 2023).

The target of assay [1] is T1, Sodium-dependent noradrenaline transporter (Homo sapiens, UniProt P23975).
The target of assay [2] is 5-hydroxytryptamine receptor 2B (Homo sapiens, UniProt P41595). Type of assay: functional, cell-based.
Assay [3] addresses Delta-type opioid receptor (Homo sapiens, UniProt P41143).
The target of assay [4] is T2, Muscarinic acetylcholine receptor M2 (Homo sapiens, UniProt P08172).
T2 sequence (P08172 whole entry): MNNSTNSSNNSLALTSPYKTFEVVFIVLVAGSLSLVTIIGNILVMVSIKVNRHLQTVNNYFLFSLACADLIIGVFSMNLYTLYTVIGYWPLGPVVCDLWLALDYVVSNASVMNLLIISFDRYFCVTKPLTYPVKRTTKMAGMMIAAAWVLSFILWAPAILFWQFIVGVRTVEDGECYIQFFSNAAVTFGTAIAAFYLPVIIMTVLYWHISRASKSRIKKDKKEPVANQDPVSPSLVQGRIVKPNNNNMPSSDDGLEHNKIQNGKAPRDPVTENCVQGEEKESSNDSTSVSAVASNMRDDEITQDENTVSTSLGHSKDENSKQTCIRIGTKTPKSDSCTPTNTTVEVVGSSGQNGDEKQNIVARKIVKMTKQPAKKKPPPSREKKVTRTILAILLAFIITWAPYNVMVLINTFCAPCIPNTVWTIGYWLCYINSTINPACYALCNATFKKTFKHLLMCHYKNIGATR
Format: functional, cell-based.

For assay [5], the target named is T3, Alpha-2A adrenergic receptor (Homo sapiens, UniProt P08913).
T3 sequence (P08913 whole entry): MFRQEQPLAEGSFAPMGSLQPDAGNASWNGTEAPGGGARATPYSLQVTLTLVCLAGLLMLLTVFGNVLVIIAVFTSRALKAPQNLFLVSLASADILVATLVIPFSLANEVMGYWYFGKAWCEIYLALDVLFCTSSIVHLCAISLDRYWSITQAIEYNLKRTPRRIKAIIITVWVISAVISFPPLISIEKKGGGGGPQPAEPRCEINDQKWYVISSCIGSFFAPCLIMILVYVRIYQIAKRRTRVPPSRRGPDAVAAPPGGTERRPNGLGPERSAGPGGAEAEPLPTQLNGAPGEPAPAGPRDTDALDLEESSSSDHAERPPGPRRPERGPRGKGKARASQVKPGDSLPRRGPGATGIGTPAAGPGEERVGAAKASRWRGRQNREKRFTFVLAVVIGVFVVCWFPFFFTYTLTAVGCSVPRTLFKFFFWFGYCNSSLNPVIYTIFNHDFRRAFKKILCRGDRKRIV
Type of assay: functional, cell-based.

For assay [6], the target named is T1, Sodium-dependent noradrenaline transporter. The source holds these as a separate data set.
The target in assay [7] is 3',5'-cyclic-AMP phosphodiesterase 4D (Homo sapiens, UniProt Q08499). Type of assay: functional.
In assay [8] the target is Melanocortin receptor 3 (Homo sapiens, UniProt P41968).
In assay [9] the target is T4, Adenosine receptor A1 (Homo sapiens, UniProt P30542).
T4 sequence (P30542 whole entry): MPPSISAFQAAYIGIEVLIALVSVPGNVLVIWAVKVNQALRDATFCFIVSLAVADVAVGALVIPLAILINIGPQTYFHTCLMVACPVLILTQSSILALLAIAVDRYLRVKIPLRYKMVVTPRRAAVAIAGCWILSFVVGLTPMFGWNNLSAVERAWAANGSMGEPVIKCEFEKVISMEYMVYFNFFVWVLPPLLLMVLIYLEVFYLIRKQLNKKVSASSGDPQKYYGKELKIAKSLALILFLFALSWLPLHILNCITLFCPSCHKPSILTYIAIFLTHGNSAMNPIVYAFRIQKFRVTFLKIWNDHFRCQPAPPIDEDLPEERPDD

The target of assay [10] is D(1A) dopamine receptor (Homo sapiens, UniProt P21728). Type of assay: functional, cell-based.
In assay [11] the target is T5, Type-1 angiotensin II receptor (Homo sapiens, UniProt P30556).
T5 sequence (P30556 whole entry): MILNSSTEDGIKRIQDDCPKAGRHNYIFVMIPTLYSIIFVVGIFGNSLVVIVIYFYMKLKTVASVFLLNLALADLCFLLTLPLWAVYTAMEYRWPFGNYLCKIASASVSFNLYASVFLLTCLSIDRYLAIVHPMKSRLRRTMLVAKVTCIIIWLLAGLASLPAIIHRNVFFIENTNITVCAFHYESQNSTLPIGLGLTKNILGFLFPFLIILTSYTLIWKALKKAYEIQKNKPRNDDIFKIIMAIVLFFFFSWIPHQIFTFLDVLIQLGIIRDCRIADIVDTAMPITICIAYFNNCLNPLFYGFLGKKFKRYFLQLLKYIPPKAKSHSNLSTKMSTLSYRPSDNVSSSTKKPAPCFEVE

For assay [12], the target named is D(3) dopamine receptor (Homo sapiens, UniProt P35462).
Assay [13] deals with T6, Equilibrative nucleoside transporter 1 (Homo sapiens, UniProt Q99808).
T6 sequence (Q99808 whole entry): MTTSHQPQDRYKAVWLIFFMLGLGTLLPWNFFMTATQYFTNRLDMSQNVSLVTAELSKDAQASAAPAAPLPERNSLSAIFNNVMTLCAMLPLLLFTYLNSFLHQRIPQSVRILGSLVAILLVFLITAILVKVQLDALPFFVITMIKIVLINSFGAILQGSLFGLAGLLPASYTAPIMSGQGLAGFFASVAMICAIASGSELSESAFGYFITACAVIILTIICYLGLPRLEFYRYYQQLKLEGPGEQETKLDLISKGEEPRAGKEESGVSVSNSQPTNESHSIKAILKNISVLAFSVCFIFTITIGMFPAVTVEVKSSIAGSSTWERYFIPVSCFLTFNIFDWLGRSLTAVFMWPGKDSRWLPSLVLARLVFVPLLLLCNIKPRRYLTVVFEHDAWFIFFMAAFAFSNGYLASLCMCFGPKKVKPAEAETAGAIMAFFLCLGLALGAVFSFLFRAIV

Where only a bound is given, the exact number is not on record here.
Further: assay procedure not described here.

Chain of D(3) dopamine receptor (P35462 whole entry): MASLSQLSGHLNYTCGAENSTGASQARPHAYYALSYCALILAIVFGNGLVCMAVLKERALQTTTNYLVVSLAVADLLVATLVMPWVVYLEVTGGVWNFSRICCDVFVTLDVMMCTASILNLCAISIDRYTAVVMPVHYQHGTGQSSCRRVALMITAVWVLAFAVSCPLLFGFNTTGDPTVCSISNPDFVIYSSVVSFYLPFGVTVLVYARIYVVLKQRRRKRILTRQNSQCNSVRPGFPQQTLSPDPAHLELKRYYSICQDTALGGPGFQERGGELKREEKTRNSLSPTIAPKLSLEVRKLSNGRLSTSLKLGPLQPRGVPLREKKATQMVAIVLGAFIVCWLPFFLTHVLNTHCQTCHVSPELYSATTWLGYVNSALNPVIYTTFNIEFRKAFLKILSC
T1 sequence (P23975 whole entry): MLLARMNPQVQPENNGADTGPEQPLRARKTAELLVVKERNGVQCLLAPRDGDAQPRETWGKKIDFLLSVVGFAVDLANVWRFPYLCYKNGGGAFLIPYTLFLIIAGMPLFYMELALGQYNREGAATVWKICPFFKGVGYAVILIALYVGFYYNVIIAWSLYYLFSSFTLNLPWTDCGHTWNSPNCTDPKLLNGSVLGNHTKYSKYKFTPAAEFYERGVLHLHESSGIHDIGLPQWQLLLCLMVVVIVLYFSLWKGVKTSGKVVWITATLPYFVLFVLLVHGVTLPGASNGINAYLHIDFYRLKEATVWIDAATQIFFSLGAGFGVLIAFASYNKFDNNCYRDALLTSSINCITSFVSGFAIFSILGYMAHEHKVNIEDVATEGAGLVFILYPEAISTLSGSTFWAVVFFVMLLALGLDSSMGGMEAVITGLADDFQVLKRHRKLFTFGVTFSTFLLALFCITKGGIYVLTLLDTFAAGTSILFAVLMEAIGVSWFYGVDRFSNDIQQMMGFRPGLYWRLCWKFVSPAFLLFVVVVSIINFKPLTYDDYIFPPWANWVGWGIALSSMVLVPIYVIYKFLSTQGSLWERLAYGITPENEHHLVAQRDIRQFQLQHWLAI
Chain of 3',5'-cyclic-AMP phosphodiesterase 4D (Q08499 whole entry): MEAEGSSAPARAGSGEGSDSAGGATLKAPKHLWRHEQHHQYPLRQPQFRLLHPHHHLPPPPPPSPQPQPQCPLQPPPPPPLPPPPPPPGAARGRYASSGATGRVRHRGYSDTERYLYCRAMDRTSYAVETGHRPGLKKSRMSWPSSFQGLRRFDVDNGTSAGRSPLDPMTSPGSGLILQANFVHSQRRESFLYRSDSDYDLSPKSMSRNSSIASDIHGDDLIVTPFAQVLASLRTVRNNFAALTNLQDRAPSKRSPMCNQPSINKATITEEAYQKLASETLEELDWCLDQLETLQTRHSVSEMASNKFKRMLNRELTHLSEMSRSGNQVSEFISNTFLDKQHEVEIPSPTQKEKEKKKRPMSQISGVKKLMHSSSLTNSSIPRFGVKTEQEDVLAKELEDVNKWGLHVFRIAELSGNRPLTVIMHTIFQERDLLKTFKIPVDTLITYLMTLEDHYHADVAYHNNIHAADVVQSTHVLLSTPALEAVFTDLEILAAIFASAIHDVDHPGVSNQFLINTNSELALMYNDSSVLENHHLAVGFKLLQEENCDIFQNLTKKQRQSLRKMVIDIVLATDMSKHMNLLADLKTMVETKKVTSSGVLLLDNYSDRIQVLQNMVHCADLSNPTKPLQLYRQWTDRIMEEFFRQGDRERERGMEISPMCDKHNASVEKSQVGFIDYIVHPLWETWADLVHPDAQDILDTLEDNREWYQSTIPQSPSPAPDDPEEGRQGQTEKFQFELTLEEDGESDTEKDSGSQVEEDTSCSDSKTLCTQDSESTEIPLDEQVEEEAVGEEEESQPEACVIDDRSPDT
Chain of 5-hydroxytryptamine receptor 2B (P41595 whole entry): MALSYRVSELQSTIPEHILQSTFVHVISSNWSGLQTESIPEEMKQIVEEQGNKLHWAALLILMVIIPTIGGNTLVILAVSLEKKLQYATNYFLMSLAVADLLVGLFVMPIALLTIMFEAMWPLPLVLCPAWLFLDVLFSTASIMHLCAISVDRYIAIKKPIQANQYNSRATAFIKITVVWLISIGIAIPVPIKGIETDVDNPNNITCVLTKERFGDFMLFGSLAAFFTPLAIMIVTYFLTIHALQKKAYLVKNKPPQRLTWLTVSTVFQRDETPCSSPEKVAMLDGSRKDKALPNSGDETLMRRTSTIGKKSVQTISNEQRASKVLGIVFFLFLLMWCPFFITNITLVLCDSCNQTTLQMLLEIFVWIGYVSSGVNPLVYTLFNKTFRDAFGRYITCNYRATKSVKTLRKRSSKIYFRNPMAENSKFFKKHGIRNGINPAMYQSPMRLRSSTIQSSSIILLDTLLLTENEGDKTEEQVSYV
Chain of D(1A) dopamine receptor (P21728 whole entry): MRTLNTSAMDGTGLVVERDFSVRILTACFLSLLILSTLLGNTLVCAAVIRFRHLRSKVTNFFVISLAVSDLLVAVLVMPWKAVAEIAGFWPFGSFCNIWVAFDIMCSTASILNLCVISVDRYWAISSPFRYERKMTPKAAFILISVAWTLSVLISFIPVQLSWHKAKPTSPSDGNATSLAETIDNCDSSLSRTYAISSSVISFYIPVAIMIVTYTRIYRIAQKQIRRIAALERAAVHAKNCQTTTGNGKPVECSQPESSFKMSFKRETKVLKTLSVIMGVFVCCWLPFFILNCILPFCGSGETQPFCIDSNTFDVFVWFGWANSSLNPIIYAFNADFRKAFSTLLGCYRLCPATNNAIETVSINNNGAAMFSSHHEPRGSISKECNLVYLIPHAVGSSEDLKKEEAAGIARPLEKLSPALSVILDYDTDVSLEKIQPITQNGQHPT
Chain of Delta-type opioid receptor (P41143 whole entry): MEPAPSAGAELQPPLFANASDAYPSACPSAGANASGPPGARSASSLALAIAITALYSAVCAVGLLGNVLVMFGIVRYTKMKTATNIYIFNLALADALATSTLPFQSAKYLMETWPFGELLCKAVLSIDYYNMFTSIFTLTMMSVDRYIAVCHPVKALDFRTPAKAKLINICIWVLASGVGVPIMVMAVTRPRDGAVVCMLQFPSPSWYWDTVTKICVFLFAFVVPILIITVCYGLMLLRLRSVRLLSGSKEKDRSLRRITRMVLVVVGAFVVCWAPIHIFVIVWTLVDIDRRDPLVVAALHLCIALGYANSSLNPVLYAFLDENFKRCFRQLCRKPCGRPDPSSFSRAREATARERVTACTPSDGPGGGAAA
Chain of Melanocortin receptor 3 (P41968 whole entry): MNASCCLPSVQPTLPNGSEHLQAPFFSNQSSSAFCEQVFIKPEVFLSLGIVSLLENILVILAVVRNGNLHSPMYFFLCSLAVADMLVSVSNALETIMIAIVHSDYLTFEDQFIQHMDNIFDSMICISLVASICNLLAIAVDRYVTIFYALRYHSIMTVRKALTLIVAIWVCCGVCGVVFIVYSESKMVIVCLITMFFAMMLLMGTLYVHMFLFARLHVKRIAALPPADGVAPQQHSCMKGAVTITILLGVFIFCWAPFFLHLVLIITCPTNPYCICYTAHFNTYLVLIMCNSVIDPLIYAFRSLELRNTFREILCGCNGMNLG

As usually defined, the AC50 is the concentration at which the activity in the assay is half-maximal. A higher AC50 goes with weaker potency. For the molecule `COC(c1ccccc1)(c1ccccc1)[C@H](Oc1nc(C)cc(C)n1)C(=O)O` [AMBRISENTAN], the half-maximal activity concentration (AC50) in [1] and in assay [2] was > 30 µM each time.
With `CCc1oc2ccccc2c1C(=O)c1cc(I)c(O)c(I)c1` [BENZIODARONE], the figures for the AC50 in [1] and in assay [2] were 12.6 µM and > 30 µM, respectively.
For `CN(C)CCn1nnnc1SCC1=C(C(=O)O)N2C(=O)[C@@H](NC(=O)Cc3csc(N)n3)[C@H]2SC1` [CEFOTIAM], the concentration at half-maximal activity (AC50) in assay [1] and in [2] was > 30 µM throughout.
With `COCc1c(C(C)C)nc(C(C)C)c(/C=C/[C@@H](O)C[C@@H](O)CC(=O)O)c1-c1ccc(F)cc1` [CERIVASTATIN], the AC50 in assay [1] and in assay [2] was > 30 µM throughout.
As to `Oc1c(Cl)cc(Cl)c2cccnc12` [CHLOROXINE], the values for the AC50 in [1] and in [2] were 5.19 µM and > 30 µM, respectively.
The matching figures for `C[N+](C)(C)CCO` [CHOLINE]: > 30 µM and > 30 µM.
Consider `CN(C)[C@@H](c1cccc(O)c1)[C@H]1CCCC[C@H]1O` [CIRAMADOL], for which the AC50 in [1] and in [2] was > 30 µM in each case.
On to `CN(C)CC(c1ccc(O)cc1)C1(O)CCCCC1` (stereo unspecified) [DESVENLAFAXINE], for which the AC50 in [2] is > 30 µM.
For `CN(C)CCN1C(=O)c2ccccc2N(C)c2ccccc21` [DIBENZEPIN], the half-maximal activity concentration (AC50) is 0.212 µM in [1] and > 30 µM in [2].
The corresponding values for `N[C@H](C(=O)O)[C@H](O)c1ccc(O)c(O)c1` [DROXIDOPA] are > 30 µM and > 30 µM.
For `C[C@]12CC[C@@H]3c4ccc(O)cc4CC[C@H]3[C@@H]1C[C@@H](O)[C@@H]2O` [ESTRIOL], the AC50 in [1] and in [2] was > 30 µM each time.
As to `Cc1cc(C#N)cc(C)c1Oc1nc(Nc2ccc(C#N)cc2)nc(N)c1Br` [ETRAVIRINE], the AC50 was 5.88 µM in assay [1] and > 30 µM in assay [2].
The matching figures for `O=C(O)c1cc(O)ccc1O` [GENTISIC ACID]: > 30 µM and > 30 µM.
The matching figures for `CCC1=C(C)CN(C(=O)NCCc2ccc(S(=O)(=O)NC(=O)N[C@H]3CC[C@H](C)CC3)cc2)C1=O` [GLIMEPIRIDE]: > 30 µM and > 30 µM.
As for `CC(C)Nc1ncccn1` [ISAXONINE], the AC50 in assay [1] and in assay [2] was > 30 µM throughout.
On to `N[C@@H](C(=O)N[C@@H]1C(=O)N2C(C(=O)O)=C(Cl)CC[C@H]12)c1ccccc1` [LORACARBEF ANHYDROUS], for which the concentration at half-maximal activity (AC50) in assay [1] and in assay [2] was > 30 µM each time.
For the molecule `C[C@@H](O)[C@H]1C(=O)N2C(C(=O)O)=C(S[C@@H]3CN[C@H](C(=O)N(C)C)C3)[C@H](C)[C@H]12` [MEROPENEM], the AC50 in [3], in [4], in assay [5], in [6], in assay [7] and in assay [8] was > 300 µM in each case. In addition, the AC50 in assay [9], in assay [10], in assay [11], in assay [12] and in assay [13] was > 300 µM throughout.
In the case of `OCCN1C[C@H](O)[C@@H](O)[C@H](O)[C@H]1CO` [MIGLITOL], the concentration at half-maximal activity (AC50) in assay [1] and in assay [2] was > 30 µM in each case.
As for `Clc1ccc(C(c2ccccc2Cl)C(Cl)Cl)cc1` (stereo unspecified) [MITOTANE], the AC50 in assay [3] was > 30 µM; in [4] it was > 10 µM; in assay [5] it was > 10 µM; in assay [6] it was > 10 µM; in assay [7] it was > 30 µM; in [8] it was > 10 µM. For the same molecule, the AC50 in assay [9] was > 10 µM; in assay [10], > 10 µM; in assay [11] it was > 10 µM; in assay [12], > 30 µM; in assay [13] it was > 10 µM.
Turning to `CC(=O)N[C@@H]1[C@@H](O)[C@H](O)[C@@H](CO)O[C@H]1O` [N-ACETYLGLUCOSAMINE], the AC50 in assay [1] and in [2] was > 30 µM each time.
In the case of `O=C(CCNNC(=O)c1ccncc1)NCc1ccccc1` [NIALAMIDE], the AC50 in [1] and in assay [2] was > 30 µM throughout.
On to `CC[N+]1(C)[C@@H]2CC(OC(=O)[C@H](CO)c3ccccc3)C[C@H]1[C@@H]1O[C@@H]12` (stereo partly specified) [OXITROPIUM], for which the half-maximal activity concentration (AC50) in assay [1] and in assay [2] was > 30 µM each time.
In the case of `CC(C)(C)NC[C@H](O)COc1ccccc1C1CCCC1` [PENBUTOLOL], the values for the concentration at half-maximal activity (AC50) in [1] and in assay [2] were 13.4 µM and > 30 µM, respectively.
The corresponding values for `CC(C)(S)[C@@H](N)C(=O)O` [PENICILLAMINE] are > 30 µM and > 30 µM.
On to `CN(C)S(=O)(=O)c1ccc2c(c1)N(CCCN1CCC(CCO)CC1)c1ccccc1S2` [PIPOTIAZINE], for which the half-maximal activity concentration (AC50) was 12 µM in assay [1] and > 30 µM in assay [2].
The corresponding values for `C=C[C@H]1C[N@@]2CC[C@H]1C[C@H]2[C@H](O)c1ccnc2ccc(OC)cc12` [QUININE] are > 30 µM and > 30 µM.
On to `CCC(=O)NCC[C@@H]1CCc2ccc3c(c21)CCO3` [RAMELTEON], for which the AC50 in assay [1] and in assay [2] was > 30 µM throughout.
As for `CCOC(=O)[C@H](CCc1ccccc1)N[C@@H](C)C(=O)N1[C@H](C(=O)O)C[C@H]2CCCC[C@@H]21` [TRANDOLAPRIL], the concentration at half-maximal activity (AC50) in assay [1] and in assay [2] was > 30 µM in each case.
For `N[C@@H]1[C@H]2CN(c3nc4c(cc3F)c(=O)c(C(=O)O)cn4-c3ccc(F)cc3F)C[C@@H]12` [TROVAFLOXACIN], the half-maximal activity concentration (AC50) in assay [3], in assay [4], in [5], in assay [6], in assay [7] and in assay [8] was > 30 µM each time. For the same molecule, the half-maximal activity concentration (AC50) in assay [9], in assay [10], in assay [11], in [12] and in assay [13] was > 30 µM throughout.
As for `CCCCCCOc1nsnc1C1=CCCN(C)C1` [XANOMELINE], the half-maximal activity concentration (AC50) in [1] was 2.74 µM; in assay [2] it was > 30 µM.
